Laboratory results: patent US6740500B1, “Method of screening for non-steroidal neuropsychiatric agents” (priority 2000, dated 2004)

Experiments:
[1] = tested on: γ-aminobutyric acid type A (GABAA) receptor; settings: at low nanomolar concentrations; cited from earlier work
[2] = tested on: ALLO in the cerebrospinal fluid (CSF); assay: CSF neurosteroid content in patients with unipolar major depression after SSRI treatment; format: in vivo, human; settings: 8-10 weeks of treatment
[3] = tested on: socially isolated mice; assay: Social-isolation stress mice: brain ALLO content and barbiturate-induced sleeping time; format: in vivo; settings: single injection 2.6 μmol/Kg i.p.
[4] = tested on: brain ALLO content; assay: Brain ALLO content after fluoxetine in normal and ADX/CX male rats; format: in vivo, rat
[5] = tested on: ALLO content in rat brain slices; assay: ALLO content in vitro in rat brain slices; format: cell-based
Source text: Presumably, this effect was mediated via an inhibition of the oxidative function of the 3α-HSOR by the FGIN-1 drugs. Such an effect would lead to the accumulation of ALLO, since the reverse step—the reduction of 5α-DHP to ALLO was not affected by these compounds. Similar results were obtained in brain slices of ADX/CX rats.

Row | Compound | modulation of GABAA receptor function [1] | concentration of ALLO in CSF [2] | brain content of ALLO and barbiturate-sleeping time ([3]; group-housed mice) | barbiturate-sleeping time ([3]; socially isolated mice) | brain content of ALLO ([3]; socially isolated mice) | increase of brain ALLO content ([4]; 5-20 mg/kg, i.p., normal and ADX/CX male rats) | brain ALLO content after fluoxetine ([4]; ADX/CX rats, increase from 2 pmol/g) | dose and time dependence of effect on brain ALLO content ([4]; also after protracted fluoxetine treatment) | brain ALLO content after fluoxetine ([4]; normal rats, increase from 3 pmol/g tissue) | brain region specificity of ALLO increase ([4]; rat brain regions) | ALLO content in rat brain slices [5]
1 | CC(=O)[C@H]1CC[C@H]2[C@@H]3CC[C@H]4C[C@H](O)CC[C@]4(C)[C@H]3CC[C@]12C [ALLO, 5α-pregnan-3α-ol-20-one] | positively modulates |  |  |  |  |  |  |  |  |  | 
2 | CNCCC(Oc1ccc(C(F)(F)F)cc1)c1ccccc1 (centres unmarked) [fluoxetine] |  | significantly increased | without altering | normalized | normalized | 2-3 fold | 8 pmol/g | dose- and time-dependent | 9 pmol/g tissue | most pronounced ALLO increase occurring in the olfactory bulb, cortex, and hippocampus | could increase ALLO content
